The text below walks through data of ChEMBL document CHEMBL2073880, “Heterologous expression of various P-glycoproteins in polarized epithelial cells induces directional transport of small (type 1) and bulky (type 2) cationic drugs” (J Pharmacol Exp Ther, 1998).

Common to all, as to type: functional, cell-based
Data set [1] has as its target T1, ATP-dependent translocase ABCB1 (Homo sapiens, UniProt P08183). The data set can be described thus: TP_TRANSPORTER: transepithelial transport (basal to apical) in MDR1-expressing LLC-PK1 cells. The settings on record: pig.
In data set [2] the target is T2, ATP-dependent translocase ABCB1 (Mus musculus, UniProt P06795). The data set can be described thus: TP_TRANSPORTER: transepithelial transport (basal to apical) in Mdr1b-expressing LLC-PK1 cells. As to conditions: pig.
T2 sequence (P06795 whole entry): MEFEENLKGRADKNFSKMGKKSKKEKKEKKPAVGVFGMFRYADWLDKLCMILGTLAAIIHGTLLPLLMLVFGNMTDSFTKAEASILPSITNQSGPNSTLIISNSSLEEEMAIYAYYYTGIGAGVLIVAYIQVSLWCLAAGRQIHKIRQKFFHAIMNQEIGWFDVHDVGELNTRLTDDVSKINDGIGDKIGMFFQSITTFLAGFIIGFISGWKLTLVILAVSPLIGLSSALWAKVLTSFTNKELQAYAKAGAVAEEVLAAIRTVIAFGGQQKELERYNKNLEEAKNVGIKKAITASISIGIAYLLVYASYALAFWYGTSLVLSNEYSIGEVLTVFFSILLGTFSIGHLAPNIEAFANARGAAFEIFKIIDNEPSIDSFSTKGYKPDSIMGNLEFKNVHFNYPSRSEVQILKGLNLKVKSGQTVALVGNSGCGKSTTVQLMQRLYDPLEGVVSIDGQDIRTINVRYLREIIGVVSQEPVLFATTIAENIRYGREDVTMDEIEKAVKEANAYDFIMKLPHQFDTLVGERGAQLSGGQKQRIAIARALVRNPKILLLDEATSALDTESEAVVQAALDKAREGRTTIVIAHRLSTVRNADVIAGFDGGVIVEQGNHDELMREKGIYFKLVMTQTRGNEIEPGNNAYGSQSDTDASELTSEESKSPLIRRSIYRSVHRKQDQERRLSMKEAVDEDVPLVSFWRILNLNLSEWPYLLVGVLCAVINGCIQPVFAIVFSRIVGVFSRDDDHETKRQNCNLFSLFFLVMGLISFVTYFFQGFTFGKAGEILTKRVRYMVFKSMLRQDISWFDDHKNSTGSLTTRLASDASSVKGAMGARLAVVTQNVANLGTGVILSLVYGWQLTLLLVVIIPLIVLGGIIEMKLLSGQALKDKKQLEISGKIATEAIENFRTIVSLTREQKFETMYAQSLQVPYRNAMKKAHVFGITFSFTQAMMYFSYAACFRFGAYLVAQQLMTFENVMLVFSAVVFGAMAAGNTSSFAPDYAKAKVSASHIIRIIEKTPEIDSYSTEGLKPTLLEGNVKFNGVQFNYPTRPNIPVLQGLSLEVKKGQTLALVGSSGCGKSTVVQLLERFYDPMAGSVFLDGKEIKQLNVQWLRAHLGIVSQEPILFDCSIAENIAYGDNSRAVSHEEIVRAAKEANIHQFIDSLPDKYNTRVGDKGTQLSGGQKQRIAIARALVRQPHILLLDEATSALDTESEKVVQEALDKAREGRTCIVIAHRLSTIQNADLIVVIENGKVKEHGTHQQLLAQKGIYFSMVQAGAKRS
For data set [3], the target named is T3, ATP-dependent translocase ABCB1 (Mus musculus, UniProt P21447). The data set can be described thus: TP_TRANSPORTER: transepithelial transport (basal to apical) in Mdr1a-expressing LLC-PK1 cells. As to conditions: pig.
T3 sequence (P21447 whole entry): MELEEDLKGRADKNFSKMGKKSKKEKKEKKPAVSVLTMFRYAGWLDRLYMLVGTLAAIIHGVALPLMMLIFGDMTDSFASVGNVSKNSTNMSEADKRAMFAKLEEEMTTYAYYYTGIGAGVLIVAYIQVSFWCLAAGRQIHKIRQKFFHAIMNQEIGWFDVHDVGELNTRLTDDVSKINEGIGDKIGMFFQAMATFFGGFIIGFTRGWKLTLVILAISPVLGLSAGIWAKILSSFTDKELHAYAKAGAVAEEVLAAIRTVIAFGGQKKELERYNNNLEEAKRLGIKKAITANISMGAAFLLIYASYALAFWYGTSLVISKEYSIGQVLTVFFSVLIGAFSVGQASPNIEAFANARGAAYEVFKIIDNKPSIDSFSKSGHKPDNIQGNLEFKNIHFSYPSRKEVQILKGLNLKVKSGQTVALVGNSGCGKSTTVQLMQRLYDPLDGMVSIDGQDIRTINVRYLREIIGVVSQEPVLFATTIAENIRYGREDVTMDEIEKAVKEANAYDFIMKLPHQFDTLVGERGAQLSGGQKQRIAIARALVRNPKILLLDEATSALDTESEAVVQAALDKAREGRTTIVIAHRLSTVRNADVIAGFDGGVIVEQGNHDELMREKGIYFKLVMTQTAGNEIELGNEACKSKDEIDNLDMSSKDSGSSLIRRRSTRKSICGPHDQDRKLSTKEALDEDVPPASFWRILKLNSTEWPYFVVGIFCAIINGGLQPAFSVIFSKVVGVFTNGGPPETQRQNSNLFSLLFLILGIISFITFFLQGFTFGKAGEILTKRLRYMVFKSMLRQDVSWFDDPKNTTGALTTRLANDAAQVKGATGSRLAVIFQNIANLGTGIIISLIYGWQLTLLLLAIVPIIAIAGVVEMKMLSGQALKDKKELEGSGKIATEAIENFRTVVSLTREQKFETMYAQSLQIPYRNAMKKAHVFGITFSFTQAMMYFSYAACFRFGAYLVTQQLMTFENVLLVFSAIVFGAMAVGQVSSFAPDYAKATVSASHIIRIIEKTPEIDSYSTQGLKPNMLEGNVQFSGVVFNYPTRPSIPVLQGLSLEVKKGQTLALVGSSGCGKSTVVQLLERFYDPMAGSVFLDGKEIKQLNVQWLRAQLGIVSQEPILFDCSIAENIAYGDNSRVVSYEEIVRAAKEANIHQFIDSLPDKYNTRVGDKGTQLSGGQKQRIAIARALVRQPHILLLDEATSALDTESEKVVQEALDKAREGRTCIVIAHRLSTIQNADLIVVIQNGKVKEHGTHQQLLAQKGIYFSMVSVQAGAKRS
Data set [4] concerns the target T1, ATP-dependent translocase ABCB1. Kind of data set: TP_TRANSPORTER: inhibition of TBuMA transepithelial transport (basal to apical)(TBuMA: 10 uM, Vinblastine: 2 uM) in MDR1-expressing LLC-PK1 cells. As to conditions: pig, llc-pk1, 2 µM.
For data set [5], the target named is T2, ATP-dependent translocase ABCB1. The data set can be described thus: TP_TRANSPORTER: inhibition of TBuMA transepithelial transport (basal to apical)(TBuMA: 10 uM, Vinblastine: 2 uM) in Mdr1b-expressing LLC-PK1 cells. The settings on record: pig, llc-pk1, 2 µM.
In data set [6] the target is T3, ATP-dependent translocase ABCB1. The data set can be described thus: TP_TRANSPORTER: inhibition of TBuMA transepithelial transport (basal to apical)(TBuMA: 10 uM, Vinblastine: 2 uM) in Mdr1a-expressing LLC-PK1 cells. As to conditions: pig, llc-pk1, 2 µM.

The structures appear in SMILES notation.

T1 sequence (P08183 whole entry): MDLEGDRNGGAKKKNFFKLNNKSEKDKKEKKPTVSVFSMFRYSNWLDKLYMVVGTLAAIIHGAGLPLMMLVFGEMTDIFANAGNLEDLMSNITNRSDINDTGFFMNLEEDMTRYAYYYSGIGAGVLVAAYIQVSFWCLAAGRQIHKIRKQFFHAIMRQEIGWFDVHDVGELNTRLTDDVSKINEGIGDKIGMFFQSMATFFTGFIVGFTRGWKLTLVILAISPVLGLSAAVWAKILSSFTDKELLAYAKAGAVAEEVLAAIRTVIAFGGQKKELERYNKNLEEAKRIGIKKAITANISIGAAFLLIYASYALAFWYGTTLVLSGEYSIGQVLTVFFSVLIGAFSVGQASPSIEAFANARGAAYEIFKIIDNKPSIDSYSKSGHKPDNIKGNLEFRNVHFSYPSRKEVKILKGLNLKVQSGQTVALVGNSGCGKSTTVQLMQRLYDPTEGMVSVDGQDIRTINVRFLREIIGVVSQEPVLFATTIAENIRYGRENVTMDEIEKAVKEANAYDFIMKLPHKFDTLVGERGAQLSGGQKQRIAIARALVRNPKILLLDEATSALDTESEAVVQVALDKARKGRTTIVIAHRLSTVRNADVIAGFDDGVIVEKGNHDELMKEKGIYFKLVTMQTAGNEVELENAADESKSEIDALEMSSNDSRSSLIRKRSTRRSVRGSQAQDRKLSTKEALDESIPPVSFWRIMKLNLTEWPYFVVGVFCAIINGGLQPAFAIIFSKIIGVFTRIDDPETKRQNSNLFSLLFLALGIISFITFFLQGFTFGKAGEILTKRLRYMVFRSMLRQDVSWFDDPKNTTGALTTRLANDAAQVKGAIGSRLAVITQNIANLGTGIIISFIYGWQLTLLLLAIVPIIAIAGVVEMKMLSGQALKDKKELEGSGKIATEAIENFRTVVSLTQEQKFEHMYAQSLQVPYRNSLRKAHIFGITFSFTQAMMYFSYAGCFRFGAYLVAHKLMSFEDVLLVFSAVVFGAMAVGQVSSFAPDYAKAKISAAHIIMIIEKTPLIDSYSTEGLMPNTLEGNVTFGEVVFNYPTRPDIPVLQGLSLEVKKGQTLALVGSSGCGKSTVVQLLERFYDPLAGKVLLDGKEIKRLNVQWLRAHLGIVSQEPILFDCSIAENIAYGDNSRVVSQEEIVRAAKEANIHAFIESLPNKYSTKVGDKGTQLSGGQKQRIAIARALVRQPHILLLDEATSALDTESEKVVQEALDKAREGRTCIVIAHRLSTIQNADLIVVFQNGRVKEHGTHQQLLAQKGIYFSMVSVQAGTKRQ

Regarding `CCCC[N+](C)(CCCC)CCCC` [TRIBUTYLMETHYLAMMONIUM], the Activity result in data set [1], in data set [2] and in data set [3] was “substrate [+]” each time.

Regarding `CC(=O)O[C@H]1C[C@@H]2CC[C@@H]3[C@H](CC[C@@]4(C)[C@H]3C[C@H]([N+]3(C)CCCCC3)[C@@H]4OC(C)=O)[C@@]2(C)C[C@@H]1N1CCCCC1` [VECURONIUM], the Activity result in data set [1], in data set [2] and in data set [3] was “substrate [+]” in each case.

For the compound `CC[N+](C)(CC)CCNC(=O)c1ccc(N=[N+]=[N-])cc1.[I-]` [AZIDOPROCAINAMIDE METHOIODIDE], the Activity result in data set [1] and in data set [3] was “substrate [+]” each time.

Consider `CC[C@]1(O)C[C@@H]2CN(CCc3c([nH]c4ccccc34)[C@@](C(=O)OC)(c3cc4c(cc3OC)N(C)[C@H]3[C@@](O)(C(=O)OC)[C@H](OC(C)=O)[C@]5(CC)C=CCN6CC[C@]43[C@@H]65)C2)C1` [VINBLASTINE], for which the Activity entry is “inhibitor [+]” in data set [4]; “inhibitor [+]” in data set [5]; “substrate [+]” in data set [2]; “inhibitor [+]” in data set [6]; “substrate [+]” in data set [3].
